Test results taken from article PMC11190223, “Identification of sulfakinin receptor regulating feeding behavior and hemolymph trehalose homeostasis in the silkworm, Bombyx mori” (Scientific Reports, 2024).
Entries after “also recorded” stand apart in the source; their conditions may differ. Each block holds one molecule with its values, some of them ahead of it. Where no end group is shown, it is not given here. [ ]: non-standard residue; d: D form. sY = N[C@@H](Cc1ccc(OS(=O)(=O)O)cc1)C(=O)O

What was measured:
BNGR-A9 [1] = assay: Fura-2 AM-based Ca^2+ mobilization assay, BNGR-A9; assay type: cell-based, Bombyx mori; conditions: for Effect of Gαq/PLC inhibitor on BmsSK-triggered Ca^2+ mobilization: FR900359 1 μM or U73122 5 μM
Source text: (§1) The entire coding region of BNGR-A9 (NM_001134272.1) was obtained by PCR and subsequently cloned into pEGFP-N1 and pCMV-Flag vectors using the primers listed in Table S1. The Flag-BNGR-A9 construct was generated for functional assays, including CRE-luciferase, calcium mobilization, and ERK phosphorylation assays, while BNGR-A9-EGFP was created for receptor visualization purposes. Additionally, for expression in the BmN cell system, the BNGR-A9 gene was inserted into the pIZT/V5-His vector. All constructs were validated by DNA sequencing.
(§2) HEK293 cells were cultured with Dulbecco’s Modified Eagle’s Medium (Gibco, NY, USA) supplied with 10% Fetal bovine serum (Gibco, NY, USA) in a 37 °C humidified incubator containing 5% CO2. BmN cells were maintained in TC 100 insect medium (AppliChem, Darmstadt, Germany) supplied with 10% Fetal bovine serum in a 28 °C incubator. Both HEK293 and BmN cells were transfected with X-tremeGENE (Roche, Mannheim, Germany) according to the manufacturer’s instruction.
To monitor the changes of intracellular calcium, Fura-2 AM (Dojindo, Kumamoto, Japan) was utilized as the calcium indicator, following the methodology outlined in a previous study. Briefly, HEK293 cells stably expressing Flag-BNGR-A9 were exposed to various concentrations of Bombyx mori neuropeptides and measured using a fluorescence spectrometer (Tecan Infinite 200 PRO). Calcium levels were determined by the ratio of fluorescence excitation at 340 nm to that at 380 nm. If necessary, cells were pre-treated with U73122, FR900359, or KT5720 for 30 min prior to the initiation of the experiment. For assays involving BmN cells expressing pIZT-BNGR-A9, the procedures were conducted at 28 °C, and HBSS was replaced with HBM (Hepes-Buffered Medium: 140 mM NaCl, 5 mM KCl, 1 mM MgCl2, 1.2 mM Na2HPO4, 5 mM NaHCO3, 10 mM glucose, and 20 mM HEPES–NaOH, CaCl2 (1 mM), pH 6.2).
(§3) Data analysis was conducted using GraphPad Prism (San Diego, CA), with results presented as mean ± SEM. Statistical significance was assessed through Student’s t-test or two-way ANOVA with multiple comparisons, with p values below 0.05 denoted as significant (*p < 0.05, **p < 0.01, ***p < 0.001). Dose–response curves were generated via non-linear curve fitting. Adobe Photoshop was used to process images, ensuring uniform brightness and contrast settings across all conditions. All images and data provided represent findings from a minimum of three independent experiments.

[2] = system: ERK phosphorylation in silkworm brains; assay: ERK phosphorylation (western blot), silkworm larval brains ex vivo; design: species or system Bombyx mori; conditions: FR900359 1 μM, 30 min; 100 nM BmsSK; silkworm larval brains
Description: HEK293 cells with Flag-BNGR-A9 were exposed to 100 nM BmsSK for different durations and then lysed using RIPA buffer (Beyotime, China). For ex vivo assays, brains from 5th instar silkworm larvae were treated with BmsSK (100 nM) for 1, 2, or 8 h, either with a pre-treatment of Gαq inhibitor FR900359 for 30 min or without it. After treatment, samples were lysed, homogenized, and their protein concentrations were determined with a BCA protein kit (Takara, Japan). For western blot analysis, equal amounts of protein lysate were used. Protein expression was analyzed using specific primary antibodies: rabbit monoclonal antibodies for total and phosphorylated ERK from Cell Signaling Technology (MA, USA).

BNGR-A9 [3] = assay: CRE-driven luciferase reporter assay, BNGR-A9; assay type: cell-based, Bombyx mori; conditions: for EC50 / Activation of BNGR-A9 (CRE-driven luciferase activity): 4 h, at least three independent experiments; for EC50: dose-response; for Activation of BNGR-A9 (CRE-driven luciferase activity): 1 μM peptide, with or without forskolin (5 μM)
Source text: as §1, §2
HEK293 and BmN cells were transfected with the different Bombyx receptors (Flag-BNGR-A9, -A24, -A32, or A33 for HEK293 cells, and pIZT-BNGR-A9, -A24, -A32, or A33 for BmN cells) along with the corresponding CRE-reporter plasmid. When cell confluence reached 90–95%, they were treated with various concentrations of Bombyx mori neuropeptides, with or without forskolin. Following a 4-h incubation period, cells were lysed, and luciferase activities were determined using a firefly luciferase kit (Beyotime, Shanghai, China).
as §3

BNGR-A9 [4] = assay: cAMP ELISA in BNGR-A9-expressing HEK293 cells; assay type: cell-based, Bombyx mori; conditions: 1 μM, 15 min, IBMX pretreatment (300 μM, 1 h)
Description: 1. Measurement of cAMP accumulation
Cells were seeded in 24-well plates and incubated overnight. Prior to treatment, cells
were pre-treated with the phosphodiesterase inhibitor IBMX (300 μM) for 1 hour.
Subsequently, cells were treated with different Bombyx neuropeptides for 15 minutes.
The reaction was terminated by removing the medium, followed by the addition of
ice-cold PBS and a single wash. Cell lysis was performed, and cAMP formation was
assessed using a competitive binding technique based on an enzyme-linked
immunosorbent assay (ELISA) (Parameter cAMP assay, R&D, Minneapolis, USA)
following the manufacturer's instructions. The results were expressed as the fold
change in cAMP concentration compared to the control concentration in the
2. Determination of Glucose of hemolymph
Silkworm larvae were anesthetized by cooling on ice, after which hemolymph was
collected using a micropipette from an incision made at the abdominal leg.
Approximately 5 mg of phenylthiourea (to achieve a final concentration of 2.5% w/v)
was added to the hemolymph in a 1.5 ml Eppendorf tube to inhibit clotting.
Hemolymph samples from 10 insects were then centrifuged at 12,000 rpm for 10
minutes at 4 °C to sediment any particulates. The glucose concentration in the
hemolymph was determined using a glucose oxidase-peroxidase kit (Shanghai […]
by stimulation with 1μM BmnsSK or BmsSK for 15 min, and the cAMP level was determined […]

BNGR-A9 [5] = assay: IP3 ELISA in BNGR-A9-expressing HEK293 cells; assay type: cell-based, Bombyx mori; conditions: 1 μM, 1 h
Description: Figure 6 Bombyx sulfated-sulfakinin mediated activation of BNGR-A9 via Gαq signaling pathway. (A and B) Effects of Gαq inhibitor FR900359 (1 μM) on the CRE-driven luciferase activities in BNGR-A9 expressing HEK293 (A) and BmN (B) cells. BNGR-A9 stable transfected cells were pretreated with FR900359 (1 μM) for 30 min and challenged with 100 nM BmsSK for 4 h. (C) Accumulation of IP3 in HEK293 cells expressing BNGR-A9 in response to Bombyx neuropeptides was assessed. Cells were pre-treated with serum-free DMEM for 1 h, followed by stimulation with 1 μM of the indicated Bombyx neuropeptides for 1 h. The level of IP3 in the supernatant was then determined using the IP3 immunoassay detection kit. (D, E) Effects of Gαq/PLC inhibitors on Flag-BNGR-A9 mediated increase of intracellular Ca^2+ level. Flag-BNGR-A9 expressing HEK293 (D) and BmN (E) cells were pretreated with Gαq inhibitorFR900359 (1 μM), U73122 (5 μM) for 30 min, and incubated with Fura-2 AM for 30 min, followed by challenging with 100 nM BmsSK. (F, G) effects of protein kinase A (PKA) inhibitor KT5720 on BmsSK initiated Ca^2+ in Flag-BNGR-A9-expressing cells. […] After 30 min incubation with Fura-2 AM, the cells were treated with 100 nM BmsSK, and detected with a fluorescence spectrometer. […] Data were analyzed by using a Student’s t-test (*p < 0.05; **p < 0.01). […]

DSK-R1 (CCKLR-17D3) = conditions: cited from earlier work
Source text: Insect SKs mediate their effects via G protein-coupled receptors (GPCRs) located on the cell surface membrane. The Drosophila SK receptor (DSK-R1, also known as CCKLR-17D3) emerged as the first cloned and characterized receptor for insect SKs, displaying high affinity for tyrosine-sulfated SK (sSK) and low affinity for nonsulfated SK (nsSK)[21]. Another receptor, CCKLR-17D1, identified in Drosophila, exclusively responds to sSKs, underscoring the critical role of the sulfated tyrosine residue in SKs for receptor interaction and activity. This specificity for sSKs was also observed in the b ...

[6] = biological target: T1, BNGR-A9 expressed in BmN cells (pIZT-BNGR-A9) (Bombyx mori) (UniProt B3XXM2)
T1 sequence: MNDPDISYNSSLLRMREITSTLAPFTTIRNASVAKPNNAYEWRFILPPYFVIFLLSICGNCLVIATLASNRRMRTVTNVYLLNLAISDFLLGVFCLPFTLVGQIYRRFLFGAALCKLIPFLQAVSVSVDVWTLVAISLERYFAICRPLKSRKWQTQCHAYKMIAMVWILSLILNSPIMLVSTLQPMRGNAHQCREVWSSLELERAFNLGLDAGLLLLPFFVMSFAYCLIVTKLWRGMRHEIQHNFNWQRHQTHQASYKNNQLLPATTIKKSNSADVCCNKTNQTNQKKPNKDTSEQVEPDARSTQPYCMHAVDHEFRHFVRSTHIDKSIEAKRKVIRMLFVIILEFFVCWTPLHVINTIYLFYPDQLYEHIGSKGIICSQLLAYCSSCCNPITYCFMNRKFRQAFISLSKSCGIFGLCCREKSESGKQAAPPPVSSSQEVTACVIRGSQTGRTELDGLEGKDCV

[7] = biological target: T2, Flag-BNGR-A9 (Bombyx mori neuropeptide G protein-coupled receptor A9) expressed in HEK293 cells (Bombyx mori) (UniProt B3XXM2)
T2 sequence: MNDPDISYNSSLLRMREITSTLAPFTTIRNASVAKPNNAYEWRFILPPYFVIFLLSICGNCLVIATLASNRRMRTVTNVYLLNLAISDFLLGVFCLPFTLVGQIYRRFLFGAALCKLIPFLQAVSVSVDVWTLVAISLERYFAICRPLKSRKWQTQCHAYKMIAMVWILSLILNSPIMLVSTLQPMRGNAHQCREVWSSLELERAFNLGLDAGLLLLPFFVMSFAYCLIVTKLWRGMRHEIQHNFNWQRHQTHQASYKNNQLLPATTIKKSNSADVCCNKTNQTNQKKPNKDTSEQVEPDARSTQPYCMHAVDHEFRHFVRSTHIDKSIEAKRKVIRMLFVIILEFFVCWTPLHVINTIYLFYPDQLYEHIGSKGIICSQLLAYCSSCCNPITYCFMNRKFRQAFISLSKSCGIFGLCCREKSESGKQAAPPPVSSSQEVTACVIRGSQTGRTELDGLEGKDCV

[8] = 30 min pretreatment, 100 nM BmsSK, HEK293 and BmN cells
[9] = CRE-driven luciferase, HEK293 and BmN cells

Molecule: CCCCCCOC(=O)[C@]1(O)C[C@@H]2O[C@@]1(C)n1c3ccccc3c3c4c(c5c6ccccc6n2c5c31)C(=O)NC4 [KT5720, reference compound]
- Effect of PKA inhibitor on BmsSK-induced Ca^2+ response (BNGR-A9 [1]; KT5720 10 μM, 30 min pretreatment, 100 nM BmsSK, HEK293 and BmN cells): did not affect

Molecule: COc1ccc2c(c1)CC[C@@H]1[C@@H]2CC[C@]2(C)[C@@H](NCCCCCCN3C(=O)C=CC3=O)CC[C@@H]12 [U73122, reference compound]
- Effect of Gαq/PLC inhibitor on BmsSK-triggered Ca^2+ mobilization (BNGR-A9 [1]; [8]): completely blocked

Molecule: FR900359 [reference compound]
- Effect of Gαq/PLC inhibitor on BmsSK-triggered Ca^2+ mobilization (BNGR-A9 [1]; [8]): completely blocked; also recorded: completely inhibited
- Effect of inhibitor on BmsSK-induced ERK phosphorylation [2]: inhibited

Molecule: GDDTFDD^8YGHLRF-NH2 [BmnsSK, Bombyx mori Non-sulfated-sulfakinin, synthetic; nonsulfated version of GDDTFDD^8YGHLRF-NH2]
- EC50 (BNGR-A9 [3]; BmN cells stably expressing BNGR-A9): 0.125 µM
- Activation efficacy relative to BmsSK (BNGR-A9 [3]; [9]): less than 30%
- Agonist type at BNGR-A9 (BNGR-A9 [3]; [9]): partial agonist
- Activation of BNGR-A9 (CRE-driven luciferase activity) (BNGR-A9 [3]; HEK293 and BmN cells): could activate BNGR-A9
- EC50 (BNGR-A9 [3]; HEK293 cells stably expressing BNGR-A9): 0.119 µM
- Ca^2+ response (BNGR-A9 [1]; 1 μM peptide, Fura-2 AM, BNGR-A9-expressing HEK293 and BmN cells, three independent experiments): triggered responses in BNGR-A9-expressing cells
- Intracellular cAMP level (BNGR-A9 [4]): remained unchanged
- Intracellular IP3 level (BNGR-A9 [5]): significant elevation

Molecule: neuropeptide F [reference compound]
- Activation of BNGR-A9 (CRE-driven luciferase activity) (BNGR-A9 [3]; HEK293 and BmN cells): did not significantly activate

Molecule: nsSK: nonsulfated SK, on Drosophila SK receptor (GDDTFDDYGHLRF-NH2)
- Affinity for DSK-R1 (DSK-R1 (CCKLR-17D3)): low affinity

Molecule: sSK: tyrosine-sulfated SK, on Drosophila SK receptor (GDDTFDD[sY]GHLRF-NH2; N-terminus assumed; SMILES CC(C)C[C@H](NC(=O)[C@H](Cc1c[nH]cn1)NC(=O)CNC(=O)[C@H](Cc1ccc(OS(=O)(=O)O)cc1)NC(=O)[C@H](CC(=O)O)NC(=O)[C@H](CC(=O)O)NC(=O)[C@H](Cc1ccccc1)NC(=O)[C@@H](NC(=O)[C@H](CC(=O)O)NC(=O)[C@H](CC(=O)O)NC(=O)CN)[C@@H](C)O)C(=O)N[C@@H](CCCNC(=N)N)C(=O)N[C@@H](Cc1ccccc1)C(N)=O)
- Affinity for DSK-R1 (DSK-R1 (CCKLR-17D3)): high affinity

- CRE-driven luciferase reporter, activation efficacy relative to BmsSK, BmN cells [6]: < 30 % of BmsSK
- CRE-driven luciferase reporter, dose-response, BmN cells stably expressing BNGR-A9 [6]: 125 nM
- CRE-driven luciferase reporter, activation efficacy relative to BmsSK, HEK293 cells [7]: < 30 % of BmsSK
- CRE-driven luciferase reporter, dose-response, HEK293 cells stably expressing BNGR-A9 [7]: 119 nM
Molecule: GDDTFDDYGHLRF-NH2 [Bombyx mori Non-sulfated-sulfakinin]
